{"source": "patent US7772192B2", "about": "“Compositions and methods for treatment of disease with acetylated disaccharides” (The Regents of the University of California, priority 2003, dated 2010)", "key": {"[1]": {"test_system": "LS180 cells", "assay": "Cytolytic assay (51Cr release) with platelets", "assay_type": "cell-based, human"}, "[2]": {"test_system": "LLC cells", "assay": "Experimental metastasis of pretreated LLC cells", "assay_type": "in vivo, mice", "conditions": "cells treated 4 days, Es1(e) mice, 3 weeks", "experimental": "(A) LLC cells were treated in culture for 4 days with peracetylated GlcNAcβ3Gal-NM or vehicle (DMSO/propylene glycol, v/v 1:1). Single-cell suspensions (2×10^5) were injected in the tail-veins of Es1(e) mice. After 3 weeks, the mice were sacrificed and the number of tumors present on the surface of the lungs was determined by visual inspection.\nLLC cells were treated in culture for 5 days with 4-deoxy AcGnG-NM, AcGnG-NM or vehicle (DMSO:propylene glycol) and then a single-cell suspension (2×10^5 cells) was injected in the tail vein of mice. After 3 weeks, the number of tumors present on the surface of the lungs was determined."}, "[3]": {"test_system": "mucin-like oligosaccharides that carry sLe^X determinants", "conditions": "among several disaccharides; cited from earlier work"}, "[4]": {"test_system": "cell-surface sLe^X of LS180 cells", "assay": "Flow cytometry of cell-surface sLe^X (CSLEX-1)", "assay_type": "cell-based, human", "conditions": "50 μM", "experimental": "Peracetylated forms of GlcNAcβ1,3Galβ-O-naphthalenemethanol (AcGnG-NM) and Galβ1,3Galβ-O-naphthalenemethanol (AcGG-NM) were prepared as described. Sarkar, et al., Carbohydr. Res., 329, 287-300, 2000. The compounds were dissolved in dimethylsulfoxide (DMSO) and added to growth medium to achieve the concentrations indicated in the figures. The supplemented medium was then exchanged for the medium in established cultures of cells in order to avoid lysis caused by adding concentrated DMSO directly to the plates. The final concentration of DMSO was adjusted to ≦0.5% (v/v). After the specified number of days, the cells were harvested with 2 mM EDTA in PBS (20 min) and used for the following experiments.\nCell Sorting. To detect the presence or absence of the relevant carbohydrate determinants, cells were stained with CSLEX-1 (anti-sLe^X, 5 μg/mL, Becton-Dickinson) or CA-19-9 ([…], 14.5 μg/mL, Chemicon) and analyzed by flow cytometry (FACScan Becton-Dickinson, Franklin Lakes, N.J.). […]\nTreatment of LS180 cells with AcGnG-NM reduces cell-surface sLe^X, but not sLe^a. […] LS180 cells were grown in the presence of 50 μM AcGnG-NM, harvested with EDTA, stained with monoclonal antibodies (CSLEX-1, anti-sLe^X and CA19-9, anti-sLe^a) as indicated and analyzed by flow cytometry (Materials and Methods). […]"}, "[5]": {"test_system": "mixed oligosaccharides", "assay": "Oligosaccharide priming, [6-3H]Gal incorporation", "assay_type": "cell-based", "description": "A 4-deoxy modified acetylated disaccharide inhibits sLe^X expression in the absence of oligosaccharide priming."}, "[6]": {"test_system": "LS180 cells", "assay": "Toxicity and growth of LS180 cells in culture", "assay_type": "cell-based, human", "experimental": "Adhesion to selectins is altered in disaccharide-treated tumor cells. Treatment of LS180 cells with AcGnG-NM was not toxic to the cells up to 100 μM based on growth curves and exclusion of Trypan blue. […] LS180 colon carcinoma cells were “panned” onto wells precoated with recombinant E- or P-selectin as indicated. Open circles, adhesion to E-selectin; filled circles, adhesion to P-selectin. The extent of adhesion was normalized to the value obtained for cells not treated with disaccharide. […] Each experimental condition was done in quadruplicate and the average values±standard errors are given. […] Adhesion to P-selectin was more sensitive to the inhibitor than adhesion to E-selectin under these conditions. The inhibitory effect of AcGnG-NM was specific since incubation of cells with acetylated Galβ1,3Galβ-O-NM (AcGG-NM) had no effect on expression of sLe^X or adhesion to either selectin conjugate See FIG. 3. The maximum extent of inhibition approached the values obtained when the cells were pre-treated with sialidase or blocking antibody to the corresponding selectin.\nA final consideration is the ability of selectins to participate in “arresting” newly circulating tumor cells in organ capillary beds. Entrapment of emboli may have important consequences on the eventual uptake and growth of tumor “seeds” into large metastatic tumor foci. […]"}, "[7]": {"test_system": "sLe^X on LS180 cell surface", "assay": "ELISA with CSLEX-1 mAb of cell-surface sLe^X", "assay_type": "cell-based, human", "conditions": "LS180 cells"}}, "data": [{"substance": "GlcNAcβ1,3Galβ-O-naphthalenemethanol [AcGnG-NM]", "values": [{"measurement": "platelet protection from cytolysis", "setting": "[1]; cells pretreated with 50 μM for 6 days, mouse leukocytes and platelets", "result": "markedly reduced"}, {"measurement": "cytolysis in whole human blood", "setting": "[1]; whole human blood, 3 hr", "result": "comparable results"}, {"measurement": "tumors on the surface of the lungs", "setting": "[2]", "result": "significantly fewer tumor foci"}, {"measurement": "potency as primer", "setting": "[3]", "result": "highest potency"}, {"measurement": "cell-surface sLe^X", "setting": "[4]", "result": "significant inhibition"}, {"measurement": "incorporation of [6-^3H]Gal into mixed oligosaccharides", "setting": "[5]", "result": "stimulates"}, {"measurement": "LS180 growth in culture", "setting": "[6]; up to 50 μM", "result": "minimal effects"}, {"measurement": "toxicity to the cells", "setting": "[6]; up to 100 μM, growth curves and exclusion of Trypan blue", "result": "not toxic"}, {"measurement": "expression of sLe^X on the cell surface", "setting": "[7]", "result": "inhibited expression of sLe^X on the cell surface in a dose-dependent manner"}]}]}
